Assay results: US4622422A, “Cyclohexanealkanoic acids” (Merrell Dow Pharmaceuticals Inc., priority 1985, dated 1986)

Legend:
[1] = target: T1, leukotriene D4 (longitudinal muscle of guinea pig ileum) (Cavia porcellus, UniProt Q2NNR5); test: Longitudinal Muscle of Guinea Pig Ileum; antagonism of LTD4-induced contraction; assay type: cell-based; details: 1 μM Indomethacin, 15 min with test agent, then cumulative LTD4, Arunlakshana and Schild, read-out: G.P. ILEUM pA2 (LTD4) (converted)
T1 construct: The longitudinal muscle was then carefully dissected from the circular muscle of the ileum; from tissue; host or cells: guinea pig ileum, longitudinal muscle segments
T1 sequence (Q2NNR5 1-340): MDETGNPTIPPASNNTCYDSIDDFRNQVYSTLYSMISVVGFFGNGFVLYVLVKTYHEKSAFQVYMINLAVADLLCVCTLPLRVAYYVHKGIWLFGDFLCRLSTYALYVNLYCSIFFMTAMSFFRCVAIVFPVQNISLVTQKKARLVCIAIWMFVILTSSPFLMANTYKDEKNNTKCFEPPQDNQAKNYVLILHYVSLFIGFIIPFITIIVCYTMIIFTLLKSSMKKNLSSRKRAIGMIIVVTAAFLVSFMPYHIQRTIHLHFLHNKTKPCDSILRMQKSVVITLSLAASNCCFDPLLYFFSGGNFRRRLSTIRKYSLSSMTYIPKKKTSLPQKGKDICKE
Protocol: Male, Hartley-Duncan, guinea pigs were sacrificed by cervical dislocation. The terminal portion of the ileum was removed, rinsed, and placed in Burn's modified Tyrode's solution. The longitudinal muscle was then carefully dissected from the circular muscle of the ileum. The longitudinal muscle was cut into 1-2 cm. segments which were placed in a tissue bath containing oxygenated Burn's modified Tyrode's solution warmed to 37° C. A tension of 1.0 gram was then placed on each segment of muscle. After equilibration for 1 hour, 1 μM Indomethacin was added to each bath. After 5 minutes, each tissue segment was then exposed to a concentration of 60 nM leukotriene D4. This response was then considered to be the initial maximal contraction that each segment will produce. After washing the tissue several times, over a 1 hour period, 1 μM Indomethacin was again added to each bath. After a 5 minute period the test agent or vehicle was added to the bath. After 15 minutes, a concentration-response curve was generated using cumulatively increasing concentrations of leukotriene D4. The concentration-response was then compared to the initial maximum contraction. A test compound was considered active, if at concentrations up to 100 μM, it produces a significant shift to the right of the concentration-response relationship to leukotriene D4. The antagonist activity was quantitated in terms of a pA2 value calculated according to the method described by Arunlakshana and Schild, (Brit. J. Pharmac. Chemotherap. 14; 48, 1959).

[2] = target: T2, 3H-LTD4 specific receptor (guinea pig lung membranes) (Cavia porcellus, UniProt Q2NNR5); test: 3H-LTD4 - Specific Receptor Binding in Guinea Pig Lung Membranes; details: inhibition of 3H-LTD4 specific binding; pH 7.6, 37° C., 20-40 min; read-out: G.P. LUNG SPECIFIC BINDING IC50
T2 construct: from tissue; host or cells: guinea pig lung membranes (30,000 g pellet)
T2 sequence (Q2NNR5 1-340): T1 sequence (Q2NNR5 1-340)
Protocol: Male guinea pigs were sacrificed and the lungs were removed and placed in ice cold 50 mM Tris-HCl buffer, pH 7.4. The lungs were then homogenized with a Polytron homogenizer and the homogenate was centrifuged at 1000 g for 10 minutes at 4° C. The supernatant was then centrifuged at 30,000 g for 15 minutes at 4° C. to obtain the membrane pellet. This pellet was resuspended in 50 mM Tris-HCl to provide the working suspension of lung membranes. Binding assays were then carried out in 50 mM Tris-HCl at pH 7.6 and 37° C. using incubation periods of 20-40 min. Separation of bound ^3 H-LTD4 from free ^3 H-LTD4 were performed by rapid vacuum filtration through Whatman GF/B glass fiber filters using ice cold Tris-HCl buffer and three 4 ml washes. Filtration and washing were completed in less than 8 seconds. The radioactivity on the filters was then measured. Specific binding of ^3 H-LTD4 was defined as the binding of ^3 H-LTD4 in the absence of unlabelled LTD4 minus the binding of ^3 H-LTD4 in the presence of 2×10^-7 M unlabelled LTD4. Specific binding of ^3 H-LTD4 was 60-80% of total binding. […] In these tests increasing concentrations of the agent are used to block the ^3 H-LTD4 specific binding. The concentration that reduces the specific binding of ^3 H-LTD4 by 50% is termed the IC50.

[3] = tested on: leukotriene D4; test: In vivo leukotriene D4 antagonist activity in anesthetized guinea pigs (modified Konzett-Rossler preparation); set-up: species or system guinea pig; details: 10-20 min before 1 μg/ml LTD4 aerosol (1 min), inflation pressure response
Protocol: Compounds of the present invention were also tested for in vivo leukotriene D4 antagonist activity in anesthetized guinea pigs using a modified Konzett-Rossler preparation. Specifically, the guinea pigs were anesthetized with sodium pentobarbital and surgically prepared for artificial ventilation by a constant volume respirator. The inflation pressure produced by the respirator was measured for each inflation of the guinea pigs' lungs. Increases in inflation pressure above baseline are indicative of bronchoconstriction. After establishing a baseline inflation pressure, the guinea pig was exposed for 1 minute to an aerosol generated ultrasonically from a 1 μg/ml solution of leukotriene D4. After the inflation pressure returned to baseline, the guinea pig was exposed to an aerosol generated from a solution of a test compound. Ten to twenty minutes later, the guinea pig was re-exposed to a 1 minute aerosol generated from 1 μg/ml leukotriene D4. This response was then compared to the initial response and the % inhibition of the response was determined.

Kb [1]	IC50 [2]	Compound	PERCENT INHIBITION ([3]; 5 mg/ml solution aerosolized)	PERCENT INHIBITION ([3]; 10 mg/ml solution aerosolized)
2.24 µM		CCCCCCCCCCCCC/C=C1\CC[C@@H](CCC(=O)O)[C@H](O)[C@H]1SCC(=O)O (relative stereo) [Example 15E, (1α,2β,3α,4E)-3-[(Carboxymethyl)thio]-2-hydroxy-4-tetradecylidenecyclohexanepropionic acid]		
30.9 µM		CCCCCCCCCCCCC/C=C1\CC[C@@H](CC(=O)O)[C@@H](O)[C@H]1SCC(=O)O (relative stereo) [Example 18, (1α,2α,3α,4E)-3-[(carboxymethyl)thio]-2-hydroxy-4-tetradecylidenecyclohexaneacetic acid]		
3.39 µM	3 µM	CCCCCCCCCCCCC/C=C1\CC[C@@H](CC(=O)O)[C@H](O)[C@H]1SCC(=O)O (relative stereo) [Example 15A, (1α,2β,3α,4E)-3-[(carboxymethyl)thio]-2-hydroxy-4-tetradecylidenecyclohexaneacetic acid]	25.3%	64.2%
1.62 µM		CCCCCCCCCCCCC/C=C1\CC[C@@H](CCC(=O)O)[C@@H](O)[C@@H]1SCC(=O)O (relative stereo) [Example 15C, (1α,2α,3β,4E)-3-[(Carboxymethyl)thio]-2-hydroxy-4-tetradecylidenecyclohexanepropionic acid]		
2 µM		CCCCCCCCCCCCC/C=C1\CC[C@@H](CCC(=O)O)[C@@H](O)[C@@H]1SCCC(=O)O (relative stereo) [Example 15D, (1α,2α,3β,4E)-3-[(2-Carboxyethyl)thio]-2-hydroxy-4-tetradecylidenecyclohexanepropionic acid]		
3.09 µM	0.4 µM	CCCCCCCCCCCCC/C=C1\CC[C@@H](CC(=O)O)[C@H](O)[C@H]1SCCC(=O)O (relative stereo) [Example 15B, (1α,2β,3α,4E)-3-[(2-Carboxyethyl)thio]-2-hydroxy-4-tetradecylidenecyclohexaneacetic acid]	44.3%	
